According to US20260022142A1, “MACROCYCLIC IMMUNOMODULATORS” (Bristol-Myers Squibb Company, priority 2022, published 2026):
Bridge positions count the residues as written; N and C are the ends. Square brackets hold non-standard residues; d marks the D form. Peptide text beside a SMILES is read from it. * marks the point of attachment. Bip = N[C@@H](Cc1ccc(-c2ccccc2)cc1)C(=O)O; Phe(3-Me) = Cc1cccc(C[C@H](N)C(=O)O)c1; hhGln = NC(=O)CCCC[C@H](N)C(=O)O; Cha = N[C@@H](CC1CCCCC1)C(=O)O; Cit = NC(=O)NCCC[C@H](N)C(=O)O; Carboxymethyl = O=C(O)C*; Orn = NCCC[C@H](N)C(=O)O; Aun = NCCCCCCCCCCC(=O)O; Dab = NCC[C@H](N)C(=O)O; Dap = NC[C@H](N)C(=O)O; AEEA = NCCOCCOCC(=O)O

Molecular target: T1, PD-1/PD-L1 interaction (PE-labeled human PD-L1-Ig binding to Jurkat cell line over-expressing human PD-1) (Homo sapiens, UniProt Q15116)
T1 construct: expressed in transfected cells; host or cells: Jurkat
Assay: Jurkat-PD-1 Cell Binding High-Content Screening Assay (CBA)
Format: cell-based
Settings: Jurkat cell line over-expressing human PD-1; PE-labeled PD-L1-Ig 20 nM final; read-out: Jurkat hPD1-PDL1 IC50
Method in brief: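 Binding of fluorescent PD-L1-Ig (phycoerythrin on Ig tag, 20 nM final, 1 h) measured by high-content imaging of fixed, Hoechst-counterstained Jurkat-hPD-1 cells. Compound added 2 h at 37° C beforehand, in DMEM with 10% fetal calf serum.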

T1 sequence (Q15116 25-288): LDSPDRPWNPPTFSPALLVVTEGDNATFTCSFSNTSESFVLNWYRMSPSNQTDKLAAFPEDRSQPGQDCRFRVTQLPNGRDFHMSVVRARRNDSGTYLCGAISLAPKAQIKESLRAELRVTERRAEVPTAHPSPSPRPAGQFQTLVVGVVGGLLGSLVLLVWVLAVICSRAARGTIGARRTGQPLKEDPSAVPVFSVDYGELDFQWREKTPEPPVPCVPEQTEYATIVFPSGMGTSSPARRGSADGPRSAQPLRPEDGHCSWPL

CC(C)C[C@H]1NC(=O)[C@H](CCCN)NC(=O)[C@H](CCCNC(N)=O)NC(=O)[C@H](Cc2ccc(-c3ccccc3)cc2)NC(=O)[C@H](C(C)C)NC(=O)[C@H](Cc2c[nH]c3ccccc23)NC(=O)[C@H](CC(=O)O)NC(=O)[C@H](Cc2ccc(OCC(=O)O)cc2)NC(=O)[C@H](CN)NC(=O)CSC[C@@H](C(=O)NCCOCCOCC(=O)N[C@@H](CCN)C(=O)NCCCCCCCCCCC(=O)O)NC(=O)[C@H](CCCCN)NC(=O)[C@H](C(C)C)NC(=O)[C@H](CC2CCCCC2)NC(=O)[C@H](CCN)NC1=O [Compound 2625] ({CH2CO}-[Dap]Y(Carboxymethyl)DWV[Bip][Cit][Orn][dL][Dab][Cha]VKC[AEEA][Dab][Aun]-OH; thioether N-14)
IC50: 16.7 nM

CC[C@H](C)[C@@H]1NC(=O)[C@H](Cc2ccc(-c3ccccc3)cc2)NC(=O)[C@H](C(C)C)NC(=O)[C@H](Cc2c[nH]c3ccccc23)NC(=O)[C@H](CC(=O)O)NC(=O)[C@H](Cc2ccc(OCC(=O)O)cc2)NC(=O)[C@H](CN)NC(=O)CSC[C@@H](C(=O)NCCOCCOCC(=O)N[C@@H](CCN)C(=O)NCCCCCCCCCCC(=O)O)NC(=O)[C@H](CCCCN)NC(=O)[C@H](C(C)C)NC(=O)[C@H](CC2CCCCC2)NC(=O)[C@H](CCN)NC(=O)[C@@H](CC(C)C)NC(=O)[C@H](CCCN)NC1=O [Compound 2626] ({CH2CO}-[Dap]Y(Carboxymethyl)DWV[Bip]I[Orn][dL][Dab][Cha]VKC[AEEA][Dab][Aun]-OH; thioether N-14)
IC50: 11.9 nM

Cc1cccc(C[C@@H]2NC(=O)[C@H](CC(=O)O)NC(=O)[C@H](Cc3ccc(OCC(=O)O)cc3)NC(=O)[C@H](CN)NC(=O)CSC[C@@H](C(=O)NCCOCCOCC(=O)N[C@@H](CCN)C(=O)NCCCCCCCCCCC(=O)O)NC(=O)[C@H](CN)NC(=O)[C@H](C(C)C)NC(=O)[C@H](CC3CCCCC3)NC(=O)[C@H](CCN)NC(=O)[C@@H](CC(C)C)NC(=O)[C@H](CCCN)NC(=O)[C@H](CCCNC(N)=O)NC(=O)[C@H](Cc3ccc(-c4ccccc4)cc3)NC(=O)[C@H](C(C)C)NC2=O)c1 [Compound 2627] ({CH2CO}-[Dap]Y(Carboxymethyl)D[Phe(3-Me)]V[Bip][Cit][Orn][dL][Dab][Cha]V[Dap]C[AEEA][Dab][Aun]-OH; thioether N-14)
IC50: 14.1 nM

CC[C@H](C)[C@@H]1NC(=O)[C@H](Cc2ccc(-c3ccccc3)cc2)NC(=O)[C@H](C(C)C)NC(=O)[C@H](Cc2cccc(C)c2)NC(=O)[C@H](CC(=O)O)NC(=O)[C@H](Cc2ccc(OCC(=O)O)cc2)NC(=O)[C@H](CN)NC(=O)CSC[C@@H](C(=O)NCCOCCOCC(=O)N[C@@H](CCN)C(=O)NCCCCCCCCCCC(=O)O)NC(=O)[C@H](CN)NC(=O)[C@H](C(C)C)NC(=O)[C@H](CC2CCCCC2)NC(=O)[C@H](CCN)NC(=O)[C@@H](CC(C)C)NC(=O)[C@H](CCCN)NC1=O [Compound 2628] ({CH2CO}-[Dap]Y(Carboxymethyl)D[Phe(3-Me)]V[Bip]I[Orn][dL][Dab][Cha]V[Dap]C[AEEA][Dab][Aun]-OH; thioether N-14)
IC50: 15.1 nM

Cc1cccc(C[C@@H]2NC(=O)[C@H](CC(=O)O)NC(=O)[C@H](Cc3ccc(OCC(=O)O)cc3)NC(=O)[C@H](CN)NC(=O)CSC[C@@H](C(=O)NCCOCCOCC(=O)N[C@@H](CCN)C(=O)NCCCCCCCCCCC(=O)O)NC(=O)[C@H](CCCN)NC(=O)[C@H](C(C)C)NC(=O)[C@H](CC3CCCCC3)NC(=O)[C@H](CCN)NC(=O)[C@@H](CC(C)C)NC(=O)[C@H](CCCN)NC(=O)[C@H](CCCNC(N)=O)NC(=O)[C@H](Cc3ccc(-c4ccccc4)cc3)NC(=O)[C@H](C(C)C)NC2=O)c1 [Compound 2629] ({CH2CO}-[Dap]Y(Carboxymethyl)D[Phe(3-Me)]V[Bip][Cit][Orn][dL][Dab][Cha]V[Orn]C[AEEA][Dab][Aun]-OH; thioether N-14)
IC50: 8.6 nM

CC[C@H](C)[C@@H]1NC(=O)[C@H](Cc2ccc(-c3ccccc3)cc2)NC(=O)[C@H](C(C)C)NC(=O)[C@H](Cc2cccc(C)c2)NC(=O)[C@H](CC(=O)O)NC(=O)[C@H](Cc2ccc(OCC(=O)O)cc2)NC(=O)[C@H](CN)NC(=O)CSC[C@@H](C(=O)NCCOCCOCC(=O)N[C@@H](CCN)C(=O)NCCCCCCCCCCC(=O)O)NC(=O)[C@H](CCCN)NC(=O)[C@H](C(C)C)NC(=O)[C@H](CC2CCCCC2)NC(=O)[C@H](CCN)NC(=O)[C@@H](CC(C)C)NC(=O)[C@H](CCCN)NC1=O [Compound 2630] ({CH2CO}-[Dap]Y(Carboxymethyl)D[Phe(3-Me)]V[Bip]I[Orn][dL][Dab][Cha]V[Orn]C[AEEA][Dab][Aun]-OH; thioether N-14)
IC50: 9.9 nM

CC(C)C[C@H]1NC(=O)[C@H](CCCN)NC(=O)[C@H](CCCCC(N)=O)NC(=O)[C@H](Cc2ccc(-c3ccccc3)cc2)NC(=O)[C@H](C(C)C)NC(=O)[C@H](Cc2c[nH]c3ccccc23)NC(=O)[C@H](CC(=O)O)NC(=O)[C@H](Cc2ccc(OCC(=O)O)cc2)NC(=O)[C@H](CN)NC(=O)CSC[C@@H](C(=O)N[C@@H](CCN)C(=O)NCCOCCOCC(=O)NCCCCCCCCCCC(=O)O)NC(=O)[C@H](CCCCN)NC(=O)[C@H](C(C)C)NC(=O)[C@H](CC2CCCCC2)NC(=O)[C@H](CCN)NC1=O [Compound 2631] ({CH2CO}-[Dap]Y(Carboxymethyl)DWV[Bip][hhGln][Orn][dL][Dab][Cha]VKC[Dab][AEEA][Aun]-OH; thioether N-14)
IC50: 14.1 nM

CC[C@H](C)[C@@H]1NC(=O)[C@H](Cc2ccc(-c3ccccc3)cc2)NC(=O)[C@H](C(C)C)NC(=O)[C@H](Cc2c[nH]c3ccccc23)NC(=O)[C@H](CC(=O)O)NC(=O)[C@H](Cc2ccc(OCC(=O)O)cc2)NC(=O)[C@H](CN)NC(=O)CSC[C@@H](C(=O)N[C@@H](CCN)C(=O)NCCOCCOCC(=O)NCCCCCCCCCCC(=O)O)NC(=O)[C@H](CCCCN)NC(=O)[C@H](C(C)C)NC(=O)[C@H](CC2CCCCC2)NC(=O)[C@H](CCN)NC(=O)[C@@H](CC(C)C)NC(=O)[C@H](CCCN)NC1=O [Compound 2632] ({CH2CO}-[Dap]Y(Carboxymethyl)DWV[Bip]I[Orn][dL][Dab][Cha]VKC[Dab][AEEA][Aun]-OH; thioether N-14)
IC50: 12.4 nM

Cc1cccc(C[C@@H]2NC(=O)[C@H](CC(=O)O)NC(=O)[C@H](Cc3ccc(OCC(=O)O)cc3)NC(=O)[C@H](CN)NC(=O)CSC[C@@H](C(=O)N[C@@H](CCN)C(=O)NCCOCCOCC(=O)NCCCCCCCCCCC(=O)O)NC(=O)[C@H](CN)NC(=O)[C@H](C(C)C)NC(=O)[C@H](CC3CCCCC3)NC(=O)[C@H](CCN)NC(=O)[C@@H](CC(C)C)NC(=O)[C@H](CCCN)NC(=O)[C@H](CCCNC(N)=O)NC(=O)[C@H](Cc3ccc(-c4ccccc4)cc3)NC(=O)[C@H](C(C)C)NC2=O)c1 [Compound 2633] ({CH2CO}-[Dap]Y(Carboxymethyl)D[Phe(3-Me)]V[Bip][Cit][Orn][dL][Dab][Cha]V[Dap]C[Dab][AEEA][Aun]-OH; thioether N-14)
IC50: 16.4 nM

CC[C@H](C)[C@@H]1NC(=O)[C@H](Cc2ccc(-c3ccccc3)cc2)NC(=O)[C@H](C(C)C)NC(=O)[C@H](Cc2cccc(C)c2)NC(=O)[C@H](CC(=O)O)NC(=O)[C@H](Cc2ccc(OCC(=O)O)cc2)NC(=O)[C@H](CN)NC(=O)CSC[C@@H](C(=O)N[C@@H](CCN)C(=O)NCCOCCOCC(=O)NCCCCCCCCCCC(=O)O)NC(=O)[C@H](CN)NC(=O)[C@H](C(C)C)NC(=O)[C@H](CC2CCCCC2)NC(=O)[C@H](CCN)NC(=O)[C@@H](CC(C)C)NC(=O)[C@H](CCCN)NC1=O [Compound 2634] ({CH2CO}-[Dap]Y(Carboxymethyl)D[Phe(3-Me)]V[Bip]I[Orn][dL][Dab][Cha]V[Dap]C[Dab][AEEA][Aun]-OH; thioether N-14)
IC50: 14.1 nM

Cc1cccc(C[C@@H]2NC(=O)[C@H](CC(=O)O)NC(=O)[C@H](Cc3ccc(OCC(=O)O)cc3)NC(=O)[C@H](CN)NC(=O)CSC[C@@H](C(=O)N[C@@H](CCN)C(=O)NCCOCCOCC(=O)NCCCCCCCCCCC(=O)O)NC(=O)[C@H](CCCNC(=N)N)NC(=O)[C@H](C(C)C)NC(=O)[C@H](CC3CCCCC3)NC(=O)[C@H](CCN)NC(=O)[C@@H](CC(C)C)NC(=O)[C@H](CCCN)NC(=O)[C@H](CCCNC(N)=O)NC(=O)[C@H](Cc3ccc(-c4ccccc4)cc3)NC(=O)[C@H](C(C)C)NC2=O)c1 [Compound 2635] ({CH2CO}-[Dap]Y(Carboxymethyl)D[Phe(3-Me)]V[Bip][Cit][Orn][dL][Dab][Cha]VRC[Dab][AEEA][Aun]-OH; thioether N-14)
IC50: 10.3 nM

CC[C@H](C)[C@@H]1NC(=O)[C@H](Cc2ccc(-c3ccccc3)cc2)NC(=O)[C@H](C(C)C)NC(=O)[C@H](Cc2cccc(C)c2)NC(=O)[C@H](CC(=O)O)NC(=O)[C@H](Cc2ccc(OCC(=O)O)cc2)NC(=O)[C@H](CN)NC(=O)CSC[C@@H](C(=O)N[C@@H](CCN)C(=O)NCCOCCOCC(=O)NCCCCCCCCCCC(=O)O)NC(=O)[C@H](CCCNC(=N)N)NC(=O)[C@H](C(C)C)NC(=O)[C@H](CC2CCCCC2)NC(=O)[C@H](CCN)NC(=O)[C@@H](CC(C)C)NC(=O)[C@H](CCCN)NC1=O [Compound 2636] ({CH2CO}-[Dap]Y(Carboxymethyl)D[Phe(3-Me)]V[Bip]I[Orn][dL][Dab][Cha]VRC[Dab][AEEA][Aun]-OH; thioether N-14)
IC50: 22.5 nM

Cc1cccc(C[C@@H]2NC(=O)[C@H](CC(=O)O)NC(=O)[C@H](Cc3ccc(OCC(=O)O)cc3)NC(=O)[C@H](CN)NC(=O)CSC[C@@H](C(=O)N[C@@H](CCCCN)C(=O)NCCCCCCCCCCC(=O)O)NC(=O)[C@H](CN)NC(=O)[C@H](C(C)C)NC(=O)[C@H](CC3CCCCC3)NC(=O)[C@H](CCN)NC(=O)[C@@H](CC(C)C)NC(=O)[C@H](CCCN)NC(=O)[C@H](CCCNC(N)=O)NC(=O)[C@H](Cc3ccc(-c4ccccc4)cc3)NC(=O)[C@H](C(C)C)NC2=O)c1 [Compound 2637] ({CH2CO}-[Dap]Y(Carboxymethyl)D[Phe(3-Me)]V[Bip][Cit][Orn][dL][Dab][Cha]V[Dap]CK[Aun]-OH; thioether N-14)
IC50: 15.5 nM
